# Measured values: patent publication US11312712B2, “Azabenzimidazoles and their use as AMPA receptor modulators” (Janssen Pharmaceutica NV, priority 2015, dated 2022)
# Biological target: GluA1o-γ8 (GRIA1o-CACNG8 fusion construct) (Homo sapiens (Human), UniProt P42261+Q8WXS5)
# Assay: Calcium flux assay (FLIPR), inhibition of TARP γ8 dependent AMPA receptor activity
# Format: cell-based
# Settings: GluA1o-γ8 (GRIA1o-CACNG8 fusion) in HEK293 cells, calcium flux after 15 μM glutamate
# Method in brief: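 HEK293 cells stably expressing a 1:1 GRIA1o–CACNG8 fusion were loaded with Calcium-5/6 dye plus compound in pH 7.4 HEPES-buffered saline. FLIPR calcium flux after 15 μM glutamate was normalized to untreated and 10 μM CP465022 controls, and a four-parameter logistic fit gave pIC50.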
# Chain of GluA1o-γ8 (GRIA1o-CACNG8 fusion construct) (P42261 other isoform, or with tags, fused parts or gaps): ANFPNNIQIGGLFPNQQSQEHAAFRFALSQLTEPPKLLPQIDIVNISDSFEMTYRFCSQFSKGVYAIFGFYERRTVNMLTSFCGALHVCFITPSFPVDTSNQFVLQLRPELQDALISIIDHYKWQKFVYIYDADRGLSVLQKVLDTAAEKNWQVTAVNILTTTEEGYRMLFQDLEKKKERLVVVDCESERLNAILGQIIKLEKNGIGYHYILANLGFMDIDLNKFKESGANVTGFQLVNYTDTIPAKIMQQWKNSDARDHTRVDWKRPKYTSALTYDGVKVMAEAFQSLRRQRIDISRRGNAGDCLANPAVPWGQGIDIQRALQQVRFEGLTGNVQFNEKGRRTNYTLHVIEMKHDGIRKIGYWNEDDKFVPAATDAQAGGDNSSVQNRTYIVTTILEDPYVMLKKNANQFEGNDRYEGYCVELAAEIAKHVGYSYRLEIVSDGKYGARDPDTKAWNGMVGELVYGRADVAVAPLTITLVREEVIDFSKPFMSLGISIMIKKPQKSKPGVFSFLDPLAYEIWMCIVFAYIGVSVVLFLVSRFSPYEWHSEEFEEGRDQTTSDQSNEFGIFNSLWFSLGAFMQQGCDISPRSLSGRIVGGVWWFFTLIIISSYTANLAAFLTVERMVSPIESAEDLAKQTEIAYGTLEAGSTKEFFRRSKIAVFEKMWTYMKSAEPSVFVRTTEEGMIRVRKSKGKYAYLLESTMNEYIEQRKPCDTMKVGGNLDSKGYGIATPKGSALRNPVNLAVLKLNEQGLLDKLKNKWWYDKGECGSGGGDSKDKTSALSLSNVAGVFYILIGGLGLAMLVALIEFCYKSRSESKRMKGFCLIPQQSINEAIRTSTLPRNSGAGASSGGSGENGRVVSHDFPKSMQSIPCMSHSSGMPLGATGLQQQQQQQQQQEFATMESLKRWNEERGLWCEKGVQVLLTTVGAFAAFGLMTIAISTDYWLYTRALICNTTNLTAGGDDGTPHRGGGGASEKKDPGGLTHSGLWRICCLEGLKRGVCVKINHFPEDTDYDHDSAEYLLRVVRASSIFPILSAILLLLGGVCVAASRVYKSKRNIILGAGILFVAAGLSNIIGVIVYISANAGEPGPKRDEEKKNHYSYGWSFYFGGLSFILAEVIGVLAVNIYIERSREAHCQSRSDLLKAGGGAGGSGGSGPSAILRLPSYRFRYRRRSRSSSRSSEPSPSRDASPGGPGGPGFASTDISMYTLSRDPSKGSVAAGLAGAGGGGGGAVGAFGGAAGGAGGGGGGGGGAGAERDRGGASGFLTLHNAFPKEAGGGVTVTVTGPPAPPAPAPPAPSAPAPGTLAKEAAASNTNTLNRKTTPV
row,Compound,IC50 [nM]
1,"COc1nc2ccc(C(F)(F)F)nc2n1-c1ccc2[nH]c(=O)sc2c1 [Example 239, 6-[2-Methoxy-5-(trifluoromethyl)imidazo[4,5-b]pyridin-3-yl]-3H-1,3-benzothiazol-2-one]",2
2,"Cc1cc(-n2c(C(C)C)cc3ccc(C(F)(F)F)nc32)cc2c1NC(=O)C2 [Example 367, 5-[2-Isopropyl-6-(trifluoromethyl)pyrrolo[2,3-b]pyridin-1-yl]-7-methyl-indolin-2-one]",0.0251
3,"O=c1[nH]c2ccc(-n3c(-c4ccc(F)cc4)nc4cccnc43)cc2o1 [Example 24, 6-[2-(4-Fluorophenyl)imidazo[4,5-b]pyridin-3-yl]-3H-1,3-benzoxazol-2-one]",316
4,"O=C1Cc2cc(-n3c(C4CC4)nc4ccc(C(F)(F)F)nc43)ccc2N1 [Example 55, 5-[2-Cyclopropyl-5-(trifluoromethyl)imidazo[4,5-b]pyridin-3-yl]indolin-2-one]",7.94
5,"CC(C)c1cc2cccnc2n1-c1cc(Cl)c2c(c1)CC(=O)N2 [Example 357, 7-Chloro-5-(2-isopropylpyrrolo[2,3-b]pyridin-1-yl)indolin-2-one]",0.0316
6,"CC(C)c1cc2ccc(C(F)(F)F)nc2n1-c1cc(F)c2c(c1)CC(=O)N2 [Example 369, 7-Fluoro-5-[2-isopropyl-6-(trifluoromethyl)pyrrolo[2,3-b]pyridin-1-yl]indolin-2-one]",0.00794
7,"Cc1ccc2nc(-c3ccccc3)n(-c3ccc4c(cnn4C(=O)OC(C)(C)C)c3)c2n1 [Example 12, tert-Butyl 5-(5-methyl-2-phenyl-imidazo[4,5-b]pyridin-3-yl)indazole-1-carboxylate]",20
8,"Cc1ccc2cc(-c3ccccc3)n(-c3cnc4c(c3)CC(=O)N4)c2n1 [Example 400, 5-(6-Methyl-2-phenyl-pyrrolo[2,3-b]pyridin-1-yl)-1,3-dihydropyrrolo[2,3-b]pyridin-2-one]",0.251
9,"O=C1Cc2cc(-n3c(C4CCCCC4)nc4ccc(C(F)(F)F)nc43)ccc2N1 [Example 48, 5-[2-Cyclohexyl-5-(trifluoromethyl)imidazo[4,5-b]pyridin-3-yl]indolin-2-one]",0.631
10,"FC(F)(F)c1ccc2nc(C(F)(F)F)n(-c3cnc4[nH]ccc4c3)c2n1 [Example 293, 3-(1H-Pyrrolo[2,3-b]pyridin-5-yl)-2,5-bis(trifluoromethyl)imidazo[4,5-b]pyridine]",39.8
11,"O=c1[nH]c2ccc(-n3c(C4CCOCC4)nc4ccc(C(F)(F)F)nc43)cc2o1 [Example 160, 6-[2-Tetrahydropyran-4-yl-5-(trifluoromethyl)imidazo[4,5-b]pyridin-3-yl]-3H-1,3-benzoxazol-2-one]",1000
12,"Nc1ccc2nc(-c3ccc(F)cc3)n(-c3ccc4[nH]c(=O)sc4c3)c2n1 [Example 82, 6-[5-Amino-2-(4-fluorophenyl)imidazo[4,5-b]pyridin-3-yl]-3H-1,3-benzothiazol-2-one]",63.1
13,"Fc1ccc(-c2nc3cccnc3n2-c2cnc3[nH]ncc3c2)cc1 [Example 112, 2-(4-Fluorophenyl)-3-(1H-pyrazolo[3,4-b]pyridin-5-yl)imidazo[4,5-b]pyridine]",398
14,"O=C(c1nc2ccc(C(F)(F)F)nc2n1-c1ccc2[nH]ncc2c1)N1CCC1 [Example 81, Azetidin-1-yl-[3-(1H-indazol-5-yl)-5-(trifluoromethyl)imidazo[4,5-b]pyridin-2-yl]methanone]",501
15,"FC(F)(F)c1ccc2nc(-c3ccccc3)n(-c3ccc4[nH]ccc4c3)c2n1 [Example 13, 3-(1H-Indol-5-yl)-2-phenyl-5-(trifluoromethyl)imidazo[4,5-b]pyridine]",2
16,"Fc1ccc(-c2nc3ccc(C(F)F)nc3n2-c2ccc3[nH]ncc3c2)cc1 [Example 322, 5-(Difluoromethyl)-2-(4-fluorophenyl)-3-(1H-indazol-5-yl)imidazo[4,5-b]pyridine]",0.0631
17,"Cc1ccc2nc(C(C)(F)F)n(-c3ccc4[nH]ncc4c3)c2n1 [Example 152, 2-(1,1-Difluoroethyl)-3-(1H-indazol-5-yl)-5-methyl-imidazo[4,5-b]pyridine]",39.8
18,"Cc1ccc2c(Br)c(-c3ccccc3)n(-c3cnc4c(c3)CC(=O)N4)c2n1 [Example 393, 5-(3-Bromo-6-methyl-2-phenyl-pyrrolo[2,3-b]pyridin-1-yl)-1,3-dihydropyrrolo[2,3-b]pyridin-2-one]",3.16
19,"Cc1ccc2nc(C3CCC3)n(-c3ccc4c(c3)CC(=O)N4)c2n1 [Example 74, 5-(2-Cyclobutyl-5-methyl-imidazo[4,5-b]pyridin-3-yl)indolin-2-one]",15.8

# Next, values leading:
row,IC50 [nM],Compound
1,0.0316,"CCc1nc2ccc(C(F)(F)F)nc2n1-c1cc(Cl)c2[nH]ncc2c1 [Example 314, 3-(7-Chloro-1H-indazol-5-yl)-2-ethyl-5-(trifluoromethyl)imidazo[4,5-b]pyridine]"
2,3.16,"CCC(F)(F)c1nc2ccc(C(F)(F)F)nc2n1-c1cc(C)c2[nH]ncc2c1 [Example 417, 2-(1,1-Difluoropropyl)-3-(7-methyl-1H-indazol-5-yl)-5-(trifluoromethyl)-3H-imidazo[4,5-b]pyridine]"
3,5.01,"Cc1ccnc2c1nc(C(F)(F)F)n2-c1cc(C)c2[nH]ncc2c1 [Example 203, 7-Methyl-3-(7-methyl-1H-indazol-5-yl)-2-(trifluoromethyl)imidazo[4,5-b]pyridine]"
4,794,"CNC(=O)c1nc2ccc(C(F)(F)F)nc2n1-c1ccc2[nH]ncc2c1 [Example 127, 3-(1H-Indazol-5-yl)-N-methyl-5-(trifluoromethyl)imidazo[4,5-b]pyridine-2-carboxamide]"
5,200,"OC1(c2nc3ccc(C(F)(F)F)nc3n2-c2ccc3[nH]ncc3c2)CC1 [Example 115, 1-[3-(1H-Indazol-5-yl)-5-(trifluoromethyl)imidazo[4,5-b]pyridin-2-yl]cyclopropanol]"
6,1,"CC(C)c1nc2ccc(C(F)(F)F)nc2n1-c1ccc2c(c1)CC(=O)N2 [Example 38, 5-[2-Isopropyl-5-(trifluoromethyl)imidazo[4,5-b]pyridin-3-yl]indolin-2-one]"
7,0.0501,"Cc1cc(-n2c([C@H](C)F)nc3ccc(C(F)(F)F)nc32)cc2cn[nH]c12 (single isomer, unassigned) [Example 257, (*S)-2-(1-Fluoroethyl)-3-(7-methyl-1H-indazol-5-yl)-5-(trifluoromethyl)imidazo[4,5-b]pyridine]"
8,10,"CCC(C)c1nc2ccc(C(F)(F)F)nc2n1-c1ccc2[nH]ncc2c1 (racemic) [Example 102, (racemic)-3-(1H-Indazol-5-yl)-2-sec-butyl-5-(trifluoromethyl)imidazo[4,5-b]pyridine]"
9,0.0158,"FC(F)c1nc2ccc(C(F)(F)F)nc2n1-c1cc(Br)c2[nH]ncc2c1 [Example 280, 3-(7-Bromo-1H-indazol-5-yl)-2-(difluoromethyl)-5-(trifluoromethyl)imidazo[4,5-b]pyridine]"
10,3.16,"Cc1ccc2nc(C(F)F)n(-c3cc(Cl)c4[nH]ncc4c3)c2n1 [Example 278, 3-(7-Chloro-1H-indazol-5-yl)-2-(difluoromethyl)-5-methyl-imidazo[4,5-b]pyridine]"
11,251,"Oc1cc(-c2nc3ccc(C(F)(F)F)nc3n2-c2ccc3[nH]ncc3c2)ccn1 [Example 225, 4-[3-(1H-Indazol-5-yl)-5-(trifluoromethyl)imidazo[4,5-b]pyridin-2-yl]pyridin-2-ol]"
